Assay results taken from ChEMBL document CHEMBL5113469, “Synthesis and biological evaluation of a tumor-selective degrader of PARP1” (Bioorg Med Chem, 2022).
pIC50: −log10 of the molar value. Each block holds one compound with its values, some of them ahead of it. Calls of active or inactive are those of the source. No cut-off for these calls is given here.

What was measured:
[1] = tested on: MDA-MB-436; test: Antiproliferative activity against human MDA-MB-436 cells assessed as cell growth inhibition incubated for 5 days by MTT assay; assay type: functional, cell-based; settings: MDA-MB-436, 120 h
[2] = tested on: CAPAN-1; test: Antiproliferative activity against human CAPAN-1 cells assessed as cell growth inhibition incubated for 5 days by MTT assay; assay type: functional, cell-based; settings: CAPAN-1, 120 h
[3] = tested on: MDA-MB-468; test: Antiproliferative activity against human MDA-MB-468 cells assessed as cell growth inhibition incubated for 5 days by MTT assay; assay type: functional, cell-based; settings: MDA-MB-468, 120 h
[4] = tested on: MDA-MB-231; test: Antiproliferative activity against human MDA-MB-231 cells assessed as cell growth inhibition incubated for 5 days by MTT assay; assay type: functional, cell-based; settings: MDA-MB-231, 120 h
[5] = target: T1, Protein cereblon/Poly [ADP-ribose] polymerase 1 (Homo sapiens, UniProt P09874+Q96SW2); test: PROTAC activity at CRBN/PARP1 in human MDA-MB-231 cells assessed as induction of PARP1 degradation at 1 uM incubated for 24 hrs by western blot analysis; assay type: cell-based
Target sequence in this assay (P09874 2-1014 limits assumed): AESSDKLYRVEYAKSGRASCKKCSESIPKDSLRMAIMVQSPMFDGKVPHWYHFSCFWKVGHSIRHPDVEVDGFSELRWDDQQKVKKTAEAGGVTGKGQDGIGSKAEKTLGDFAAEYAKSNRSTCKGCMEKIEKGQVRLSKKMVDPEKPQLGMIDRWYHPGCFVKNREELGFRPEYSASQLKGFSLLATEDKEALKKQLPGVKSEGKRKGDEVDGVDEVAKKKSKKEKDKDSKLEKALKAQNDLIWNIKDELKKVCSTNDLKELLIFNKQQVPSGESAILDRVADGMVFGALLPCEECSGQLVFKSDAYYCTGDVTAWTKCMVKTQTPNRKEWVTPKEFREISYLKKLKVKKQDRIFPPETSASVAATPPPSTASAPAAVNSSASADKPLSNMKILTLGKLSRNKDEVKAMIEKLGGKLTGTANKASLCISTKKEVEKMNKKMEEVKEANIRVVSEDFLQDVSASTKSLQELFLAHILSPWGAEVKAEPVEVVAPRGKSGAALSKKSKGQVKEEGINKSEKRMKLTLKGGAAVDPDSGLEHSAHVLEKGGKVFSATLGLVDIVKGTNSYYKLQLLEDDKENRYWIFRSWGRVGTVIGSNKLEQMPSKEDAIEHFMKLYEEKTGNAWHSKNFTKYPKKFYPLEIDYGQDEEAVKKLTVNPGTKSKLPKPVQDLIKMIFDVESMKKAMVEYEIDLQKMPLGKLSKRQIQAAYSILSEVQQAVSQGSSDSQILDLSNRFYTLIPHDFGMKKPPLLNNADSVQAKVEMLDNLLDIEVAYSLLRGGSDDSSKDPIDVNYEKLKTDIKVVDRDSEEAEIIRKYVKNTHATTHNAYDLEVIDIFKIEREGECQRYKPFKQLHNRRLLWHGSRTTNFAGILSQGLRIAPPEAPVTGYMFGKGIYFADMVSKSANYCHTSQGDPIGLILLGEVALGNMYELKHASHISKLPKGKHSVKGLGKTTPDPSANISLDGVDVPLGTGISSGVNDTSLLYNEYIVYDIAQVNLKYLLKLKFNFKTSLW
Target sequence in this assay (Q96SW2 whole entry partner): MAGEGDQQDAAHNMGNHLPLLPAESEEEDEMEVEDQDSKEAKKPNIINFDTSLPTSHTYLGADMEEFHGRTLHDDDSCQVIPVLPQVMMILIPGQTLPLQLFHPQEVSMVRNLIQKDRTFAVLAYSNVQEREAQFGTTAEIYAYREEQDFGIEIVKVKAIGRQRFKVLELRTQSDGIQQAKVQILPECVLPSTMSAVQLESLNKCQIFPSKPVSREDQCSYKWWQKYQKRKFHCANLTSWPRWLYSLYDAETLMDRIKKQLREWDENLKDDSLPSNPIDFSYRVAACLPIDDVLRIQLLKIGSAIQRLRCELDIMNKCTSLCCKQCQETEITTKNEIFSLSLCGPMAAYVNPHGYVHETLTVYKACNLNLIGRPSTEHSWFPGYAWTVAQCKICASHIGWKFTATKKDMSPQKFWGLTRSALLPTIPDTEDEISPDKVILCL

[6] = target: T1, Protein cereblon/Poly [ADP-ribose] polymerase 1; test: PROTAC activity at CRBN/PARP1 in human MDA-MB-231 cells assessed as induction of PARP1 degradation incubated for 24 hrs by western blot analysis; assay type: cell-based
Target sequence in this assay (P09874 whole entry): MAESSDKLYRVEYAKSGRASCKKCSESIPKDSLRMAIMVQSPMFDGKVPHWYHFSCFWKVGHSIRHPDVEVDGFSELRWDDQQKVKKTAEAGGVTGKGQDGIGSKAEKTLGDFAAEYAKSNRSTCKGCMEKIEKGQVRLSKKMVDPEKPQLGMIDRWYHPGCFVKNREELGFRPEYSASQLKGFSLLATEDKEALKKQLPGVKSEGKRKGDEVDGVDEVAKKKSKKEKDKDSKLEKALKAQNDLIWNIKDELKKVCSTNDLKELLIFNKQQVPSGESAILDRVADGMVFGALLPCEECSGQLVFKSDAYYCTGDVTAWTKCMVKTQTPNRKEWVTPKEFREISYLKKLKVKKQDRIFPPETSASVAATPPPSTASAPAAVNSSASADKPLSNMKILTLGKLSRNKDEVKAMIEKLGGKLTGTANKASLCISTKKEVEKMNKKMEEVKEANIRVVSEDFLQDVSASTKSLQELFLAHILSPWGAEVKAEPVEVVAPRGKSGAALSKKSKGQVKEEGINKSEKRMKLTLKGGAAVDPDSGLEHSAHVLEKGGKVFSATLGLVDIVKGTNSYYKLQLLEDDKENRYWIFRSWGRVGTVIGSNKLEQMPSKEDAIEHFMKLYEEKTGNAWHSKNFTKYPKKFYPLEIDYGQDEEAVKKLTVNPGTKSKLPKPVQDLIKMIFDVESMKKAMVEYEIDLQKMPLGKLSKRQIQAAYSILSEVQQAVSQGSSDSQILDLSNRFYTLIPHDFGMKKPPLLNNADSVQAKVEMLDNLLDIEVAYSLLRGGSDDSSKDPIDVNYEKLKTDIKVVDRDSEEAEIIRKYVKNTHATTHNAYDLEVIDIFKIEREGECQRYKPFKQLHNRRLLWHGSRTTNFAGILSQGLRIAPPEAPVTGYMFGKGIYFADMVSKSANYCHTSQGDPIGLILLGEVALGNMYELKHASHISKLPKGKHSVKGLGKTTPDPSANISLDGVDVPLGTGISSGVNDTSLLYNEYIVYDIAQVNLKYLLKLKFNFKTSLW
Target sequence in this assay (Q96SW2 whole entry): as the sequence (Q96SW2 whole entry partner) above

[7] = target: T1, Protein cereblon/Poly [ADP-ribose] polymerase 1; test: PROTAC activity at CRBN/PARP1 in human MDA-MB-231 cells assessed as induction of PARP1 degradation at 1 uM incubated for 4 hrs by western blot analysis; assay type: cell-based
Target sequence in this assay (P09874 2-1014 limits assumed): as the sequence (P09874 2-1014 limits assumed) above
Target sequence in this assay (Q96SW2 whole entry partner): as the sequence (Q96SW2 whole entry partner) above

[8] = target: T1, Protein cereblon/Poly [ADP-ribose] polymerase 1; test: PROTAC activity at CRBN/PARP1 in human L02 cells assessed as induction of PARP1 degradation incubated for 24 hrs by western blot analysis; assay type: cell-based
Target sequence in this assay (P09874 whole entry): as the sequence (P09874 whole entry) above
Target sequence in this assay (Q96SW2 whole entry): as the sequence (Q96SW2 whole entry partner) above

[9] = target: Poly [ADP-ribose] polymerase 1 (Homo sapiens, UniProt P09874); test: Binding affinity to PARP1 (unknown origin)
[10] = tested on: L02; test: Antiproliferative activity against human L02 cells assessed as cell growth inhibition incubated for 5 days by MTT assay; assay type: toxicity, cell-based; settings: l02, 120 h, time 5 day
[11] = tested on: HeLa; test: Antiproliferative activity against human HeLa cells assessed as cell growth inhibition incubated for 5 days by MTT assay; assay type: functional, cell-based; settings: time 5.0 day
[12] = tested on: HepG2; test: Antiproliferative activity against human HepG2 cells assessed as cell growth inhibition incubated for 5 days by MTT assay; assay type: functional, cell-based; settings: time 5.0 day
[13] = tested on: NCI-H2228; test: Antiproliferative activity against human NCI-H2228 cells assessed as cell growth inhibition incubated for 5 days by MTT assay; assay type: functional, cell-based; settings: time 5.0 day
[14] = tested on: NCI-H3122; test: Antiproliferative activity against human NCI-H3122 cells assessed as cell growth inhibition incubated for 5 days by MTT assay; assay type: functional, cell-based; settings: time 5.0 day
[15] = tested on: SW620/5-FU; test: Antiproliferative activity against human SW620/5-FU cells assessed as cell growth inhibition incubated for 5 days by MTT assay; assay type: functional, cell-based; settings: time 5.0 day
[16] = tested on: MV4-11; test: Antiproliferative activity against human MV4-11 cells assessed as cell growth inhibition incubated for 5 days by MTT assay; assay type: functional, cell-based; settings: time 5.0 day
[17] = tested on: MDA-MB-231; test: Antiproliferative activity against human MDA-MB-231 cells assessed as colony growth inhibition at 0.625 to 10 uM incubated for 14 days by MTT assay; assay type: functional, cell-based; settings: dose 0.625-10 µM, time 14.0 day, DDE = dose-dependent effect
[18] = tested on: MDA-MB-231; test: Induction of cell cycle arrest in human MDA-MB-231 cells assessed as accumulation at G0/G1 phase at 0.312 uM incubated for 24 hrs by propidium iodide staining based flow cytometry analysis (reference value: 32.62 %); assay type: functional
[19] = tested on: MDA-MB-231; test: Induction of cell cycle arrest in human MDA-MB-231 cells assessed as accumulation at G2/M phase at 0.312 uM incubated for 24 hrs by propidium iodide staining based flow cytometry analysis (reference value: 27.14 %); assay type: functional
[20] = tested on: MDA-MB-231; test: Induction of cell cycle arrest in human MDA-MB-231 cells assessed as accumulation at S phase at 0.312 uM incubated for 24 hrs by propidium iodide staining based flow cytometry analysis (reference value: 37.88 %); assay type: functional
[21] = tested on: MDA-MB-231; test: Induction of cell cycle arrest in human MDA-MB-231 cells assessed as accumulation at G0/G1 phase at 0.625 uM incubated for 24 hrs by propidium iodide staining based flow cytometry analysis (reference value: 32.62 %); assay type: functional
[22] = tested on: MDA-MB-231; test: Induction of cell cycle arrest in human MDA-MB-231 cells assessed as accumulation at G2/M phase at 0.625 uM incubated for 24 hrs by propidium iodide staining based flow cytometry analysis (reference value: 27.14 %); assay type: functional
[23] = tested on: MDA-MB-231; test: Induction of cell cycle arrest in human MDA-MB-231 cells assessed as accumulation at S phase at 0.625 uM incubated for 24 hrs by propidium iodide staining based flow cytometry analysis (reference value: 37.88 %); assay type: functional
[24] = tested on: MDA-MB-231; test: Induction of cell cycle arrest in human MDA-MB-231 cells assessed as accumulation at G0/G1 phase at 1.25 uM incubated for 24 hrs by propidium iodide staining based flow cytometry analysis (reference value: 32.62 %); assay type: functional
[25] = tested on: MDA-MB-231; test: Induction of cell cycle arrest in human MDA-MB-231 cells assessed as accumulation at G2/M phase at 1.25 uM incubated for 24 hrs by propidium iodide staining based flow cytometry analysis (reference value: 27.14 %); assay type: functional
[26] = tested on: MDA-MB-231; test: Induction of cell cycle arrest in human MDA-MB-231 cells assessed as accumulation at S phase at 1.25 uM incubated for 24 hrs by propidium iodide staining based flow cytometry analysis (reference value: 37.88 %); assay type: functional
[27] = tested on: MDA-MB-231; test: Induction of cell cycle arrest in human MDA-MB-231 cells assessed as accumulation at G0/G1 phase at 2.5 uM incubated for 24 hrs by propidium iodide staining based flow cytometry analysis (reference value: 32.62 %); assay type: functional
[28] = tested on: MDA-MB-231; test: Induction of cell cycle arrest in human MDA-MB-231 cells assessed as accumulation at G2/M phase at 2.5 uM incubated for 24 hrs by propidium iodide staining based flow cytometry analysis (reference value: 27.14 %); assay type: functional
[29] = tested on: MDA-MB-231; test: Induction of cell cycle arrest in human MDA-MB-231 cells assessed as accumulation at S phase at 2.5 uM incubated for 24 hrs by propidium iodide staining based flow cytometry analysis (reference value: 37.88 %); assay type: functional
[30] = tested on: MDA-MB-231; test: Induction of cell cycle arrest in human MDA-MB-231 cells assessed as accumulation at G0/G1 phase at 5 uM incubated for 24 hrs by propidium iodide staining based flow cytometry analysis (reference value: 32.62 %); assay type: functional
[31] = tested on: MDA-MB-231; test: Induction of cell cycle arrest in human MDA-MB-231 cells assessed as accumulation at G2/M phase at 5 uM incubated for 24 hrs by propidium iodide staining based flow cytometry analysis (reference value: 27.14 %); assay type: functional
[32] = tested on: MDA-MB-231; test: Induction of cell cycle arrest in human MDA-MB-231 cells assessed as accumulation at S phase at 5 uM incubated for 24 hrs by propidium iodide staining based flow cytometry analysis (reference value: 37.88 %); assay type: functional
[33] = tested on: MDA-MB-231; test: Induction of cell morphological changes in human MDA-MB-231 at 1 uM incubated for 24 hrs by DAPI and Rhodamine staining based immunofluorescence assay; assay type: functional
[34] = target: T1, Protein cereblon/Poly [ADP-ribose] polymerase 1; test: PROTAC activity at CRBN/PARP1 in human MDA-MB-231 cells assessed as induction of PARP1 degradation at 0.12 to 4 uM incubated for 24 hrs by western blot analysis; assay type: cell-based; settings: dose 0.12-4 µM, DDE = dose-dependent effect
Target sequence in this assay (P09874 2-1014 limits assumed): as the sequence (P09874 2-1014 limits assumed) above
Target sequence in this assay (Q96SW2 whole entry partner): as the sequence (Q96SW2 whole entry partner) above

Sequence of Poly [ADP-ribose] polymerase 1 (P09874 whole entry): as the sequence (P09874 whole entry) above

- pIC50 [1]: 7.51
- pIC50 [3]: 5.63
- pIC50 [4]: 5.41
- Activity [5]: Active
- DC50 [6]: 0.053 µM
- Activity [7]: 90%
- DC50 [8]: 3.2 µM
- pIC50 [9]: 8.53
Structure (SMILES): O=C1CCC(N2C(=O)c3cccc(NC(=O)CNCCCCCCCCCCC(=O)N4CCN(C(=O)c5cc(Cc6n[nH]c(=O)c7ccccc67)ccc5F)CC4)c3C2=O)C(=O)N1 (stereo not given)
- pIC50 [2]: 7.11
- Activity [10]: Toxic
- Activity [11]: Active
- Activity [12]: Active
- Activity [13]: Active
- Activity [14]: Active
- Activity [15]: Active
- Activity [16]: Active
- Activity [17]: Dde
- Activity [18]: 37.11%
- Activity [19]: 28.41%
- Activity [20]: 33.02%
- Activity [21]: 36.68%
- Activity [22]: 29.56%
- Activity [23]: 32.14%
- Activity [24]: 32.03%
- Activity [25]: 35.58%
- Activity [26]: 30.97%
- Activity [27]: 32.48%
- Activity [28]: 37.16%
- Activity [29]: 30.55%
- Activity [30]: 25.81%
- Activity [31]: 41.92%
- Activity [32]: 30.47%
- Activity [33]: Active

- pIC50 [1]: 6.54
- pIC50 [3]: 5.11
- pIC50 [4]: 4.98
- Activity [5]: Active
Structure (SMILES): O=C1CCC(N2C(=O)c3cccc(NC(=O)CNCCCCCCCC(=O)N4CCN(C(=O)c5cc(Cc6n[nH]c(=O)c7ccccc67)ccc5F)CC4)c3C2=O)C(=O)N1 (stereo not given)
- pIC50 [2]: 6.19

- pIC50 [1]: 7.12
- pIC50 [3]: 5.30
- pIC50 [4]: 5.14
Structure (SMILES): O=C1CCC(N2C(=O)c3cccc(NC(=O)CNCCCCCCCCCCCCC(=O)N4CCN(C(=O)c5cc(Cc6n[nH]c(=O)c7ccccc67)ccc5F)CC4)c3C2=O)C(=O)N1 (stereo not given)
- pIC50 [2]: 6.62

- pIC50 [1]: 5.37
- pIC50 [3]: < 4.70
- pIC50 [4]: < 4.70
Structure (SMILES): O=C1CCC(N2C(=O)c3cccc(NC(=O)CNCCCCCC(=O)N4CCN(C(=O)c5cc(Cc6n[nH]c(=O)c7ccccc67)ccc5F)CC4)c3C2=O)C(=O)N1 (stereo not given)
- pIC50 [2]: 5.31

- pIC50 [1]: 7.28
- pIC50 [3]: 5.39
- pIC50 [4]: 5.34
- Activity [34]: Dde
Structure (SMILES): CN1C(=O)CCC(N2C(=O)c3cccc(NC(=O)CNCCCCCCCCCCC(=O)N4CCN(C(=O)c5cc(Cc6n[nH]c(=O)c7ccccc67)ccc5F)CC4)c3C2=O)C1=O (stereo not given)
- pIC50 [2]: 6.80

- pIC50 [1]: < 5.00
- pIC50 [3]: < 4.70
- pIC50 [4]: < 4.70
Structure (SMILES): O=C1CCC(N2C(=O)c3cccc(NC(=O)CNCC(=O)N4CCN(C(=O)c5cc(Cc6n[nH]c(=O)c7ccccc67)ccc5F)CC4)c3C2=O)C(=O)N1 (stereo not given)
- pIC50 [2]: < 5.00

- pIC50 [1]: 6.89
- pIC50 [3]: 5.36
- pIC50 [4]: 5.27
- Activity [5]: Active
Structure (SMILES): O=C1CCC(N2C(=O)c3cccc(NC(=O)CNCCCCCCCCCC(=O)N4CCN(C(=O)c5cc(Cc6n[nH]c(=O)c7ccccc67)ccc5F)CC4)c3C2=O)C(=O)N1 (stereo not given)
- pIC50 [2]: 6.66
